Experimental data taken from ChEMBL document CHEMBL5143707, “Benzodiazepine Derivatives as Potent Vasopressin V2 Receptor Antagonists for the Treatment of Autosomal Dominant Kidney Disease” (J Med Chem, 2022).

Key:
in vivo [1] = conditions: C57BL/6, mouse, kidney, sc, 5 mg/kg
in vivo [2] = conditions: C57BL/6, mouse, kidney, sc, 5 mg/kg; remark: listed apart in the source

Cc1ccccc1C(=O)Nc1ccc(C(=O)N2CCCC(O)c3cc(Cl)ccc32)c(C)c1 (configuration not stated) [TOLVAPTAN]
concentration at 0.5 h (in vivo [1]): 6100 ng/g | concentration at 1 h (in vivo [2]): 3900 ng/g
